# Source: patent US20050197350A1, “Novel quinoline, tetrahydroquinazoline, and pyrimidine derivatives and methods of treatment related to the use thereof” (TAISHO PHARMACEUTICAL CO., LTD., priority 2003, published 2005)
# System: MCH receptors
# Experiment: MCH receptor activity class (method not given)
# Details: MCH receptor activity class 1-3 (percent of control at 10^-7 M or IC50)
row,SMILES,class
1,Cc1cc(Cl)ccc1NC(=S)N[C@H]1CC[C@@H](Nc2cc(N(C)C)c3ccccc3n2)CC1 [compound 2286],3 (Class 3 The value of percent of control at 10^−7 M was more than 60% or the value of IC50 was more than 200 nM.)
2,CN(C)c1cc(N[C@H]2CC[C@@H](NC(=S)NCc3cccc4ccccc34)CC2)nc2ccccc12 [compound 2287],3 (Class 3 The value of percent of control at 10^−7 M was more than 60% or the value of IC50 was more than 200 nM.)
3,COc1cccc(CNC(=S)N[C@H]2CC[C@@H](Nc3cc(N(C)C)c4ccccc4n3)CC2)c1OC [compound 2288],3 (Class 3 The value of percent of control at 10^−7 M was more than 60% or the value of IC50 was more than 200 nM.)
4,Cc1cc(C)c(NC(=S)N[C@H]2CC[C@@H](Nc3cc(N(C)C)c4ccccc4n3)CC2)cc1C [compound 2289],3 (Class 3 The value of percent of control at 10^−7 M was more than 60% or the value of IC50 was more than 200 nM.)
5,CN(C)c1cc(N[C@H]2CC[C@@H](NC(=S)Nc3ccccc3-c3ccccc3)CC2)nc2ccccc12 [compound 2290],3 (Class 3 The value of percent of control at 10^−7 M was more than 60% or the value of IC50 was more than 200 nM.)
6,Cc1cc([N+](=O)[O-])ccc1NC(=S)N[C@H]1CC[C@@H](Nc2cc(N(C)C)c3ccccc3n2)CC1 [compound 2291],3 (Class 3 The value of percent of control at 10^−7 M was more than 60% or the value of IC50 was more than 200 nM.)
7,CN(C)c1cc(N[C@H]2CC[C@@H](NC(=S)NCc3cccc(Cl)c3)CC2)nc2ccccc12 [compound 2292],3 (Class 3 The value of percent of control at 10^−7 M was more than 60% or the value of IC50 was more than 200 nM.)
8,CCOC(=O)c1cccc(NC(=S)N[C@H]2CC[C@@H](Nc3cc(N(C)C)c4ccccc4n3)CC2)c1 [compound 2293],3 (Class 3 The value of percent of control at 10^−7 M was more than 60% or the value of IC50 was more than 200 nM.)
9,CN(C)c1cc(N[C@H]2CC[C@@H](NC(=S)Nc3ccc(Cl)cc3C(F)(F)F)CC2)nc2ccccc12 [compound 2294],3 (Class 3 The value of percent of control at 10^−7 M was more than 60% or the value of IC50 was more than 200 nM.)
10,Cc1cc(F)ccc1NC(=S)N[C@H]1CC[C@@H](Nc2cc(N(C)C)c3ccccc3n2)CC1 [compound 2295],3 (Class 3 The value of percent of control at 10^−7 M was more than 60% or the value of IC50 was more than 200 nM.)
11,COc1ccc(NC(=S)N[C@H]2CC[C@@H](Nc3cc(N(C)C)c4ccccc4n3)CC2)c(C)c1 [compound 2296],3 (Class 3 The value of percent of control at 10^−7 M was more than 60% or the value of IC50 was more than 200 nM.)
12,"COc1cc(OC)c(NC(=S)N[C@H]2CC[C@@H](Nc3cc(N(C)C)c4ccccc4n3)CC2)cc1Cl [compound 2297, N-(5-chloro-2,4-dimethoxyphenyl)-N′-(cis-4-{[4-(dimethylamino)quinolin-2-yl]amino}cyclohexyl)thiourea]",1 (Class 1: The value of percent of control at 10^−7 M was less than 40% or the value of IC50 was less than 50 nM.)

# Same assay, conditions: class by percent of control at 10^-7 M or IC50
row,SMILES,class
1,COc1cc([N+](=O)[O-])ccc1NC(=S)N[C@H]1CC[C@@H](Nc2cc(N(C)C)c3ccccc3n2)CC1 [compound 2269],3 (Class 3 The value of percent of control at 10^−7 M was more than 60% or the value of IC50 was more than 200 nM.)
2,COc1ccc(C)cc1NC(=S)N[C@H]1CC[C@@H](Nc2cc(N(C)C)c3ccccc3n2)CC1 [compound 2270],3 (Class 3 The value of percent of control at 10^−7 M was more than 60% or the value of IC50 was more than 200 nM.)
3,CN(C)c1cc(N[C@H]2CC[C@@H](NC(=S)Nc3ccc(Br)cc3Cl)CC2)nc2ccccc12 [compound 2271],3 (Class 3 The value of percent of control at 10^−7 M was more than 60% or the value of IC50 was more than 200 nM.)
4,CN(C)c1cc(N[C@H]2CC[C@@H](NC(=S)Nc3ccc(I)cc3)CC2)nc2ccccc12 [compound 2272],3 (Class 3 The value of percent of control at 10^−7 M was more than 60% or the value of IC50 was more than 200 nM.)
5,"CN(C)c1cc(N[C@H]2CC[C@@H](NC(=S)Nc3c(Cl)cc(Cl)cc3Cl)CC2)nc2ccccc12 [compound 2274, N-(cis-4-{[4-(dimethylamino)quinolin-2-yl]amino}cyclohexyl)-N′-(2,4,6-trichlorophenyl)thiourea]",2 (Class 2: The value of percent of control at 10^−7 M was from 40% to 60% or the value of IC′50 was from 50 nM to 200 nM.)
6,"Cc1cc(C)c(NC(=S)N[C@H]2CC[C@@H](Nc3cc(N(C)C)c4ccccc4n3)CC2)c(C)c1 [compound 2275, N-(cis-4-{[4-(dimethylamino)quinolin-2-yl]amino}cyclohexyl)-N′-mesitylthiourea]",1 (Class 1: The value of percent of control at 10^−7 M was less than 40% or the value of IC50 was less than 50 nM.)
7,Cc1ccc(NC(=S)N[C@H]2CC[C@@H](Nc3cc(N(C)C)c4ccccc4n3)CC2)c(C)c1 [compound 2276],3 (Class 3 The value of percent of control at 10^−7 M was more than 60% or the value of IC50 was more than 200 nM.)
8,CCc1cccc(CC)c1NC(=S)N[C@H]1CC[C@@H](Nc2cc(N(C)C)c3ccccc3n2)CC1 [compound 2277],1 (Class 1: The value of percent of control at 10^−7 M was less than 40% or the value of IC50 was less than 50 nM.)
9,Cc1ccc(NC(=S)N[C@H]2CC[C@@H](Nc3cc(N(C)C)c4ccccc4n3)CC2)c(Br)c1 [compound 2278],3 (Class 3 The value of percent of control at 10^−7 M was more than 60% or the value of IC50 was more than 200 nM.)
10,CN(C)c1cc(N[C@H]2CC[C@@H](NC(=S)NCc3ccccc3Cl)CC2)nc2ccccc12 [compound 2279],3 (Class 3 The value of percent of control at 10^−7 M was more than 60% or the value of IC50 was more than 200 nM.)
11,CCc1cccc(C)c1NC(=S)N[C@H]1CC[C@@H](Nc2cc(N(C)C)c3ccccc3n2)CC1 [compound 2280],3 (Class 3 The value of percent of control at 10^−7 M was more than 60% or the value of IC50 was more than 200 nM.)
12,CC(C)c1ccccc1NC(=S)N[C@H]1CC[C@@H](Nc2cc(N(C)C)c3ccccc3n2)CC1 [compound 2281],3 (Class 3 The value of percent of control at 10^−7 M was more than 60% or the value of IC50 was more than 200 nM.)
13,COC(=O)c1cccc(NC(=S)N[C@H]2CC[C@@H](Nc3cc(N(C)C)c4ccccc4n3)CC2)c1 [compound 2282],3 (Class 3 The value of percent of control at 10^−7 M was more than 60% or the value of IC50 was more than 200 nM.)
14,"Cc1cc(Br)cc(C)c1NC(=S)N[C@H]1CC[C@@H](Nc2cc(N(C)C)c3ccccc3n2)CC1 [compound 2283, N-(4-bromo-2,6-dimethylphenyl)-N′-(cis-4-{[4-(dimethylamino)quinolin-2-yl]amino}cyclohexyl)thiourea]",1 (Class 1: The value of percent of control at 10^−7 M was less than 40% or the value of IC50 was less than 50 nM.)
15,Cc1cc(Br)ccc1NC(=S)N[C@H]1CC[C@@H](Nc2cc(N(C)C)c3ccccc3n2)CC1 [compound 2284],2 (Class 2: The value of percent of control at 10^−7 M was from 40% to 60% or the value of IC′50 was from 50 nM to 200 nM.)
16,CN(C)c1cc(N[C@H]2CC[C@@H](NC(=S)Nc3ccc(Br)cc3C(F)(F)F)CC2)nc2ccccc12 [compound 2285],2 (Class 2: The value of percent of control at 10^−7 M was from 40% to 60% or the value of IC′50 was from 50 nM to 200 nM.)
